Data: ChEMBL document CHEMBL4390652, “Design, biological evaluation and X-ray crystallography of nanomolar multifunctional ligands targeting simultaneously acetylcholinesterase and glycogen synthase kinase-3” (Eur J Med Chem, 2019)

Experiments:
[1] = test system: Tyrosine-protein kinase ABL1 (Homo sapiens), P00519 [F317I]; experiment: Binding affinity to human phosphorylated ABL1 F317I mutant (S229 to K512 residues) expressed in mammalian expression system assessed as residual binding level at 10 uM by Kinomescan method relative to control
[2] = target: Bone morphogenetic protein receptor type-1B (Homo sapiens) (UniProt O00238); experiment: Binding affinity to wild-type human partial length BMPR1B (D178 to L502 residues) expressed in mammalian expression system assessed as residual binding level at 10 uM by Kinomescan method relative to control
[3] = target: Cyclin-dependent kinase-like 1 (Homo sapiens) (UniProt Q00532); experiment: Binding affinity to wild-type human full length CDKL1 (M1 to I358 residues) expressed in mammalian expression system assessed as residual binding level at 10 uM by Kinomescan method relative to control
[4] = target: Casein kinase I isoform delta (Homo sapiens) (UniProt P48730); experiment: Binding affinity to wild-type human full length CSNK1D (M1 to K409 residues) expressed in bacterial expression system assessed as residual binding level at 10 uM by Kinomescan method relative to control
[5] = target: Discoidin domain-containing receptor 2 (Homo sapiens) (UniProt Q16832); experiment: Binding affinity to wild-type human partial length DDR2 (V555 to E855 residues) expressed in mammalian expression system assessed as residual binding level at 10 uM by Kinomescan method relative to control
[6] = target: Dual specificity tyrosine-phosphorylation-regulated kinase 2 (Homo sapiens) (UniProt Q92630); experiment: Binding affinity to wild-type human full length DYRK2 (M1 to S528 residues) expressed in mammalian expression system assessed as residual binding level at 10 uM by Kinomescan method relative to control
[7] = target: Eukaryotic translation initiation factor 2-alpha kinase 1 (Homo sapiens) (UniProt Q9BQI3); experiment: Binding affinity to wild-type human partial length EIF2AK1 (Q147 to E603 residues) expressed in mammalian expression system assessed as residual binding level at 10 uM by Kinomescan method relative to control
[8] = target: Ephrin type-B receptor 2 (Homo sapiens) (UniProt P29323); experiment: Binding affinity to wild-type human partial length EPHB2 (I597 to L902 residues) expressed in bacterial expression system assessed as residual binding level at 10 uM by Kinomescan method relative to control
[9] = target: Mitogen-activated protein kinase 4 (Homo sapiens) (UniProt P31152); experiment: Binding affinity to wild-type human partial length ERK4 (M1 to L365 residues) expressed in bacterial expression system assessed as residual binding level at 10 uM by Kinomescan method relative to control
[10] = test system: Receptor-type tyrosine-protein kinase FLT3 (Homo sapiens), P36888 [D835H]; experiment: Binding affinity to human partial length FLT3 D835H mutant (V592 to Y969 residues) expressed in bacterial expression system assessed as residual binding level at 10 uM by Kinomescan method relative to control
[11] = target: Inhibitor of nuclear factor kappa-B kinase subunit alpha (Homo sapiens) (UniProt O15111); experiment: Binding affinity to wild-type human full length IKK-alpha (M1 to E745 residues) expressed in mammalian expression system assessed as residual binding level at 10 uM by Kinomescan method relative to control
[12] = test system: Mast/stem cell growth factor receptor Kit (Homo sapiens), P10721 [V559D]; experiment: Binding affinity to human partial length KIT V559D mutant (Y545 to D952 residues) expressed in bacterial expression system assessed as residual binding level at 10 uM by Kinomescan method relative to control
[13] = target: Mitogen-activated protein kinase kinase kinase 1 (Homo sapiens) (UniProt Q13233); experiment: Binding affinity to wild-type human partial length MAP3K1 (L1202 to W1512 residues) expressed in mammalian expression system assessed as residual binding level at 10 uM by Kinomescan method relative to control
[14] = target: Mitogen-activated protein kinase kinase kinase kinase 4 (Homo sapiens) (UniProt O95819); experiment: Binding affinity to wild-type human partial length MAP4K4 (M1 to R310 residues) expressed in bacterial expression system assessed as residual binding level at 10 uM by Kinomescan method relative to control
[15] = target: Membrane-associated tyrosine- and threonine-specific cdc2-inhibitory kinase (Homo sapiens) (UniProt Q99640); experiment: Binding affinity to wild-type human partial length PKMYT1 (A88 to G366 residues) expressed in bacterial expression system assessed as residual binding level at 10 uM by Kinomescan method relative to control
[16] = target: Serine/threonine-protein kinase PLK1 (Homo sapiens) (UniProt P53350); experiment: Binding affinity to wild-type human partial length PLK1 (A33 to F325 residues) expressed in mammalian expression system assessed as residual binding level at 10 uM by Kinomescan method relative to control
[17] = target: Protein kinase C theta type (Homo sapiens) (UniProt Q04759); experiment: Binding affinity to wild-type human partial length PRKCQ (L350 to S706 residues) expressed in bacterial expression system assessed as residual binding level at 10 uM by Kinomescan method relative to control
[18] = target: Serine/threonine-protein kinase RIO2 (Homo sapiens) (UniProt Q9BVS4); experiment: Binding affinity to wild-type human partial length RIOK2 (M1 to D313 residues) expressed in mammalian expression system assessed as residual binding level at 10 uM by Kinomescan method relative to control
[19] = target: Ribosomal protein S6 kinase alpha-1 (Homo sapiens) (UniProt Q15418); experiment: Binding affinity to wild-type human partial length N-terminal RSK1 Kinase domain 1 (M1 to E388 residues) expressed in bacterial expression system assessed as residual binding level at 10 uM by Kinomescan method relative to control
[20] = target: NUAK family SNF1-like kinase 2 (Homo sapiens) (UniProt Q9H093); experiment: Binding affinity to wild-type human partial length SNARK (P22 to A333 residues) expressed in mammalian expression system assessed as residual binding level at 10 uM by Kinomescan method relative to control
[21] = target: Serine/threonine-protein kinase TAO2 (Homo sapiens) (UniProt Q9UL54); experiment: Binding affinity to wild-type human partial length TAOK2 (M1 to A320 residues) expressed in mammalian expression system assessed as residual binding level at 10 uM by Kinomescan method relative to control
[22] = target: Tyrosine-protein kinase receptor Tie-1 (Homo sapiens) (UniProt P35590); experiment: Binding affinity to wild-type human partial length TIE1 (T819 to A1138 residues) expressed in bacterial expression system assessed as residual binding level at 10 uM by Kinomescan method relative to control
[23] = target: Phosphatidylinositol 3-kinase catalytic subunit type 3 (Homo sapiens) (UniProt Q8NEB9); experiment: Binding affinity to wild-type human partial length VPS34 (S282 to H879 residues) expressed in mammalian expression system assessed as residual binding level at 10 uM by Kinomescan method relative to control
[24] = target: Wee1-like protein kinase (Homo sapiens) (UniProt P30291); experiment: Binding affinity to wild-type human partial length WEE1 (M291 to K575 residues) expressed in bacterial expression system assessed as residual binding level at 10 uM by Kinomescan method relative to control

Sequence of Phosphatidylinositol 3-kinase catalytic subunit type 3 (Homo sapiens) (Q8NEB9 whole entry, the tested form may be a part): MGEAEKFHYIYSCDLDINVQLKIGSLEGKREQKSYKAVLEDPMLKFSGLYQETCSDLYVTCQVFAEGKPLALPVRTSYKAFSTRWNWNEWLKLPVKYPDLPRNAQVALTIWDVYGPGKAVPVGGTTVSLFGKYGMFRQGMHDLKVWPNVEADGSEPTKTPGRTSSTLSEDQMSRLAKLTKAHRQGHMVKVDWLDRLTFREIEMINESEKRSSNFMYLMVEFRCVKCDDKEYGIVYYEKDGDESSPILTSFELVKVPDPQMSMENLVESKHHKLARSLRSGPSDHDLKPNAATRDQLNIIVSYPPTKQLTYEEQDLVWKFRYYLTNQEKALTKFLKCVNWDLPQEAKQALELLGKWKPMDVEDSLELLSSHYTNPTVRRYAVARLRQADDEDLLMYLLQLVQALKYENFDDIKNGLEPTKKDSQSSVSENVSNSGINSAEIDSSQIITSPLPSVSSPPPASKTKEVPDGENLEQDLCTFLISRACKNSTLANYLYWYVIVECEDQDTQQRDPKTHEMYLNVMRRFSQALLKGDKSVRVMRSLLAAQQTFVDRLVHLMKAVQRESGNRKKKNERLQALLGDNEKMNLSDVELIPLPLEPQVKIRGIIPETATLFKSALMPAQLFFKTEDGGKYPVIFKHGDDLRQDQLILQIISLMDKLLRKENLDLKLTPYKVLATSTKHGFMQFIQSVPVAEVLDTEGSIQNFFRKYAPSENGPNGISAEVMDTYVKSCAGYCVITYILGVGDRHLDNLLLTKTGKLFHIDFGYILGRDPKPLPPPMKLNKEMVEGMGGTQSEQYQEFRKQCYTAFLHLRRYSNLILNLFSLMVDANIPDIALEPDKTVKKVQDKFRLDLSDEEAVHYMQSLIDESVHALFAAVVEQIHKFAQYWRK
Sequence of Cyclin-dependent kinase-like 1 (Homo sapiens) (Q00532 whole entry, the tested form may be a part, canonical isoform): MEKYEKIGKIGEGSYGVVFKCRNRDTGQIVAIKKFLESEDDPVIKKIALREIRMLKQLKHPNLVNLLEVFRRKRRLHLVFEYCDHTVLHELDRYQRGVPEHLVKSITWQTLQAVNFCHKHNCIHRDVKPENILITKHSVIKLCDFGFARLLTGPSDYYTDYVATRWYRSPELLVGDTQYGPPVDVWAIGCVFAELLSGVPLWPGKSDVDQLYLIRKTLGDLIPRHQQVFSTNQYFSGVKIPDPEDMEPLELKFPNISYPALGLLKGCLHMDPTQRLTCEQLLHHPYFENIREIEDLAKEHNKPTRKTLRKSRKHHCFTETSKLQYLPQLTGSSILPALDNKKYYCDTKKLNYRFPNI
Sequence of Mast/stem cell growth factor receptor Kit (Homo sapiens), P10721 [V559D] (P10721 whole entry V559D, the tested form may be a part): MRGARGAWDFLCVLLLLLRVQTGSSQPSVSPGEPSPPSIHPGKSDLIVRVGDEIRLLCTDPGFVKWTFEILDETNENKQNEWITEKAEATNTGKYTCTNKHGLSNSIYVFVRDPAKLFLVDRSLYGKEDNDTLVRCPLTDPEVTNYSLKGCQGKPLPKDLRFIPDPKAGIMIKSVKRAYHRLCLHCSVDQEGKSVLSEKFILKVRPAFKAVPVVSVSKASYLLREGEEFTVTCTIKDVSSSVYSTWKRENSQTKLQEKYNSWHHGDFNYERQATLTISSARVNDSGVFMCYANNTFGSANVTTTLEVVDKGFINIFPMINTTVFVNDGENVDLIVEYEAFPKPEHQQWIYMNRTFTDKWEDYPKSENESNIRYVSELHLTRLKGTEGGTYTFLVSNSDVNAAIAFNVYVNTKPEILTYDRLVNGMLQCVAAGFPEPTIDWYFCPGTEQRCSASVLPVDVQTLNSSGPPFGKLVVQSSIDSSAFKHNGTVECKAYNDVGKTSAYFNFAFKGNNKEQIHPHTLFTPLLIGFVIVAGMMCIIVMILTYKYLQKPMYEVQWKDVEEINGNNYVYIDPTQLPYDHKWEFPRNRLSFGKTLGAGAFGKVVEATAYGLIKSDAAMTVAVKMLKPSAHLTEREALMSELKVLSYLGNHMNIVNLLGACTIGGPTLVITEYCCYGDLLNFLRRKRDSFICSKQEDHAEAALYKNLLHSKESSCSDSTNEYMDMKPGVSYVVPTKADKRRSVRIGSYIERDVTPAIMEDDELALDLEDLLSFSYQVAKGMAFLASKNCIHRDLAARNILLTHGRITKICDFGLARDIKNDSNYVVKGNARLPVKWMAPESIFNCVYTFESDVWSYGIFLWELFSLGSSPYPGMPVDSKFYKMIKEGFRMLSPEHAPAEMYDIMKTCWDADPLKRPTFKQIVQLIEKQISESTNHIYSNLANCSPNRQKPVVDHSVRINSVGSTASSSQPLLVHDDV
Sequence of Protein kinase C theta type (Homo sapiens) (Q04759 whole entry, looked up, the tested form may be a part): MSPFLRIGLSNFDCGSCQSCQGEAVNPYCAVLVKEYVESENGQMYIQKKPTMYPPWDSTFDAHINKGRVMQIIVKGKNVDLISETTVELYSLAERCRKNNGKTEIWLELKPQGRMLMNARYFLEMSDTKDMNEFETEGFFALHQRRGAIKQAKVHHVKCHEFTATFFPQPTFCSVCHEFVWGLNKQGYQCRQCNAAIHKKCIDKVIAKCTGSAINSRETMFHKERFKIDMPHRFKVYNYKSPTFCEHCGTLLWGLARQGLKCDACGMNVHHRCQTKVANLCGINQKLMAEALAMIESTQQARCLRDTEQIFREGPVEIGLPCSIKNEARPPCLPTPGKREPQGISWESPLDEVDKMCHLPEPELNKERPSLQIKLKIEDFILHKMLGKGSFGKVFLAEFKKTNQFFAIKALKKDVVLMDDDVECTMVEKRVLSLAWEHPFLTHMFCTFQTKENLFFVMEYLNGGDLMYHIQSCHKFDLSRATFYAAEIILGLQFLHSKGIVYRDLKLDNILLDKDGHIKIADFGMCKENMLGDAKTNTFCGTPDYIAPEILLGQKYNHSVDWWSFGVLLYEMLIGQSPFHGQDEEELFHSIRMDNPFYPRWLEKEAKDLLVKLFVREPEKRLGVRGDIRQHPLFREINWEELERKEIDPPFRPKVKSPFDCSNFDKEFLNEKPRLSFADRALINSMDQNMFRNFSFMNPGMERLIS
Sequence of Eukaryotic translation initiation factor 2-alpha kinase 1 (Homo sapiens) (Q9BQI3 whole entry, the tested form may be a part): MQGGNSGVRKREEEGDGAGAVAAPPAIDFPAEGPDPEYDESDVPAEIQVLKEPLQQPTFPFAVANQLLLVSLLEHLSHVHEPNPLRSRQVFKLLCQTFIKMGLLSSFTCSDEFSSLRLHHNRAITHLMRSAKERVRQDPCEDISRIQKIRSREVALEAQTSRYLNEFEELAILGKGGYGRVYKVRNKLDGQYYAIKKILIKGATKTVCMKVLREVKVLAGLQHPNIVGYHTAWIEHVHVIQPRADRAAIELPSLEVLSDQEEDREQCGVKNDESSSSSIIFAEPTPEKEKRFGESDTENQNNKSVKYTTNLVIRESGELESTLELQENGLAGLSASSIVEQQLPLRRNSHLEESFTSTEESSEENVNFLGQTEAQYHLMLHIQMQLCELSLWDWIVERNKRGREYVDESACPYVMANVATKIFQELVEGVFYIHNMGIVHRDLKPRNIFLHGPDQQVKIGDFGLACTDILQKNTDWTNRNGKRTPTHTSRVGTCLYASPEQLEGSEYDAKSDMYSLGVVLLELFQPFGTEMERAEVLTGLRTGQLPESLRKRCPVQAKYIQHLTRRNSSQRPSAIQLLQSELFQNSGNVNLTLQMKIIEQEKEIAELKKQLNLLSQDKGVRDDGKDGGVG
Sequence of Inhibitor of nuclear factor kappa-B kinase subunit alpha (Homo sapiens) (O15111 whole entry, the tested form may be a part): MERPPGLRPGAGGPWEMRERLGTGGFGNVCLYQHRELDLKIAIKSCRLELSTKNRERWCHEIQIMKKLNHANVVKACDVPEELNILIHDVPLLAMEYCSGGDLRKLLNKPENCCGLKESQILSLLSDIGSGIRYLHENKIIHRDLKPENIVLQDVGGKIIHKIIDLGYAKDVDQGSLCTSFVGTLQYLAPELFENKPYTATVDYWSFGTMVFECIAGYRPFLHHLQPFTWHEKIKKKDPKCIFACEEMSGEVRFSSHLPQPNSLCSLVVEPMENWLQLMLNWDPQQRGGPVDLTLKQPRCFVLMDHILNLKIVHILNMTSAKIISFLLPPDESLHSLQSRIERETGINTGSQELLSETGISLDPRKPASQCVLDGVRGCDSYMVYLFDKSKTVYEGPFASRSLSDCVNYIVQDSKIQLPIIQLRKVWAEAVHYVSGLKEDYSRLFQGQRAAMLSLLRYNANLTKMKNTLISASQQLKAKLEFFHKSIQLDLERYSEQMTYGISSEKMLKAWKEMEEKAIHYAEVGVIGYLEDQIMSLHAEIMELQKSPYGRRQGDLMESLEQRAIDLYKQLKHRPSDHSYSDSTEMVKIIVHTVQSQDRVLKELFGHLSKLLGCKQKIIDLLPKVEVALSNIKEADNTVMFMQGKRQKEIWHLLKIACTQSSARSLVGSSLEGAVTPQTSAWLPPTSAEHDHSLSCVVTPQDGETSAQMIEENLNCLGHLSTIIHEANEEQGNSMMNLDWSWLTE
Sequence of Membrane-associated tyrosine- and threonine-specific cdc2-inhibitory kinase (Homo sapiens) (Q99640 whole entry, the tested form may be a part): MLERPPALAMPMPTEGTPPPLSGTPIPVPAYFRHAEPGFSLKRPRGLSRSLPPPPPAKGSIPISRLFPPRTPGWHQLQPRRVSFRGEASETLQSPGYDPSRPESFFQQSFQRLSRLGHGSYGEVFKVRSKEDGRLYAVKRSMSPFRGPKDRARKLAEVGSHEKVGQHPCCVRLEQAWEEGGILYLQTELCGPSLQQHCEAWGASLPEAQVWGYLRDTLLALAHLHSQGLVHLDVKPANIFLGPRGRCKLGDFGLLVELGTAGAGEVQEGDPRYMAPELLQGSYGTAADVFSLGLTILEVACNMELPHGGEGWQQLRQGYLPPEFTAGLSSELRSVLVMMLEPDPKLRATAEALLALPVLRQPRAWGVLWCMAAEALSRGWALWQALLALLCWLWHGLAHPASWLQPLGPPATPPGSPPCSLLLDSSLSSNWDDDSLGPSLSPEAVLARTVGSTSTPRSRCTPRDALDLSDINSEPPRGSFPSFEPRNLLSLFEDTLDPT

O=C(Nc1cc(-c2cn(CCNc3c4c(nc5ccccc35)CCCC4)nn2)ccn1)Nc1cccc2c1C1CCCCN1C2=O (racemic)
Activity [1]: 47%
Activity [2]: 25%
Activity [3]: 3%
Activity [4]: 2.8%
Activity [5]: 4.2%
Activity [6]: 53%
Activity [7]: 100%
Activity [8]: 61%
Activity [9]: 4.7%
Activity [10]: 3.4%
Activity [11]: 53%
Activity [12]: 0.05%
Activity [13]: 100%
Activity [14]: 97%
Activity [15]: 90%
Activity [16]: 81%
Activity [17]: 27%
Activity [18]: 22%
Activity [19]: 3.9%
Activity [20]: 1.9%
Activity [21]: 56%
Activity [22]: 66%
Activity [23]: 3.7%
Activity [24]: 100%
